Each block holds one compound with its values, some of them ahead of it. Active and inactive are the calls of the source.
What was measured:
[1] = growth suppression of PTEN-null colon cells, dose response, cell-based, HCT116 PTEN knockout (AID 1047); format: functional;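 note: HCT116 colon tumor cells with PTEN knocked out; cells exposed to compound for 60 hours before readout; potency for loss of cell viability measured by luminescence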
Insulin-degrading enzyme = target: T1, Insulin-degrading enzyme (Homo sapiens, UniProt P14735); assay: Dose Response: Fluorescence polarization-based cell-based high throughput dose response assay for inhibitors of insulin-degrading enzyme (IDE). [Related pubchem assays: 434962 (Primary screen (IDE inhibitors in singlicate)), 449730 (Counterscreen (Cytotoxicity in triplicate)), 435028 (Confirmation (IDE inhibitors in triplicate)), 434984 (Summary …; format: functional
T1 sequence (P14735 whole entry): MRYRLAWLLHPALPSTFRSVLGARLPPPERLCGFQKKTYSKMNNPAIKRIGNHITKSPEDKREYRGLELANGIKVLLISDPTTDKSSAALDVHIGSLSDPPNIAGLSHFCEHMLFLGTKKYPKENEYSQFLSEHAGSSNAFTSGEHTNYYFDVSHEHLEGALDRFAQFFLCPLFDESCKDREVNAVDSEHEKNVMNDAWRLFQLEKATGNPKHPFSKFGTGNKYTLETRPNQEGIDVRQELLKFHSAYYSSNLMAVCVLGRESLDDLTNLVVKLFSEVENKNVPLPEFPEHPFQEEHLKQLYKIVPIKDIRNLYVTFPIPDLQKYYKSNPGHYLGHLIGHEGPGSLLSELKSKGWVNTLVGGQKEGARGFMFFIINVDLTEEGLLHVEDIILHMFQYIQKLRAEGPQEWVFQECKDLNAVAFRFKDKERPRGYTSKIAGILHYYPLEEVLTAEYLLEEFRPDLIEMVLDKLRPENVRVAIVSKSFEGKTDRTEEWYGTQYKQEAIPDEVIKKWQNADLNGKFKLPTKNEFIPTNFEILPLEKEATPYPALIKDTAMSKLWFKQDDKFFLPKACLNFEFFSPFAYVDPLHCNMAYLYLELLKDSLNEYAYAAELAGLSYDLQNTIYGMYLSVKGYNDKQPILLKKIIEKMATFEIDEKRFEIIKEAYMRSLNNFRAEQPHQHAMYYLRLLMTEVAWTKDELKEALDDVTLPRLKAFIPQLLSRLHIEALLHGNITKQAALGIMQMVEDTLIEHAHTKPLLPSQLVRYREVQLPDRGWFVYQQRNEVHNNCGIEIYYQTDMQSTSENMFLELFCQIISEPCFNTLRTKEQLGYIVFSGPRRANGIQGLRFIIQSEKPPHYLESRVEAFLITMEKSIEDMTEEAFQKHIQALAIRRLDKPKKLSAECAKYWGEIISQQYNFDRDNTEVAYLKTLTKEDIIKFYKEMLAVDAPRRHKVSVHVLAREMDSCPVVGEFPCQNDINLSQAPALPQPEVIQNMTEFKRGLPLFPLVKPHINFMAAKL

[2] = growth suppression of beta-catenin-knockout colon cells, dose response, cell-based, HCT116, human colon tumor (AID 1045); format: functional;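 note: HCT116 colon tumor cells with beta catenin knocked out; cells exposed to compound for 60 hours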
[3] = Counterscreen for IDE inhibitors: Luminescence-based cell-based high throughput dose response assay to identify compounds that are cytotoxic to HEK cells. [Related pubchem assays: 434962 (Primary screen (IDE inhibitors in singlicate)), 449730 (Counterscreen (Cytotoxicity in triplicate)), 435028 (Confirmation (IDE inhibitors in triplicate)) …; format: functional; conditions: HEK293
Cytochrome P450 2D6 = Cytochrome P450 2D6 (Homo sapiens, UniProt P10635); assay: qHTS Assay for Inhibitors and Substrates of Cytochrome P450 2D6. [Related pubchem assays: 410 ]; format: ADME; conditions: read-out: Potency
[4] = target: T2, Neuropeptides B/W receptor type 1 (Homo sapiens, UniProt P48145); assay: Fluorescence-based dose response cell-based high throughput screening assay to identify antagonists of the G-protein coupled receptor 7 (GPR7). [Related pubchem assays: 1952 (Screening assay (GPR7 antagonists).), 1880 (Summary AID.)]; format: functional
T2 sequence (P48145 whole entry): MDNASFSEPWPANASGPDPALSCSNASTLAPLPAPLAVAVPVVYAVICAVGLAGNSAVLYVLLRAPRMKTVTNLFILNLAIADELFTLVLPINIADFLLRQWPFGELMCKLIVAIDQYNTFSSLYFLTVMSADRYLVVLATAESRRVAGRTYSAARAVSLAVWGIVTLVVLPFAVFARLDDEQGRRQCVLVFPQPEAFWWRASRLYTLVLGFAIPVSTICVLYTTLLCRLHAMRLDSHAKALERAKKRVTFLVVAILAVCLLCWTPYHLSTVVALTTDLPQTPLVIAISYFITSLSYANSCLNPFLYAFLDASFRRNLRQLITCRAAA

[5] = target: Melanin-concentrating hormone receptor 1 (Homo sapiens, UniProt Q99705); assay: Fluorescence-based counterscreen for antagonists of the G-protein coupled receptor 7 (GPR7): cell-based high throughput dose response assay to identify antagonists of the melanin-concentrating hormone receptor 1 (MCHR1).; format: functional
Protein skinhead-1 = target: T3, Protein skinhead-1 (Caenorhabditis elegans, UniProt P34707); format: functional
T3 sequence (P34707 whole entry): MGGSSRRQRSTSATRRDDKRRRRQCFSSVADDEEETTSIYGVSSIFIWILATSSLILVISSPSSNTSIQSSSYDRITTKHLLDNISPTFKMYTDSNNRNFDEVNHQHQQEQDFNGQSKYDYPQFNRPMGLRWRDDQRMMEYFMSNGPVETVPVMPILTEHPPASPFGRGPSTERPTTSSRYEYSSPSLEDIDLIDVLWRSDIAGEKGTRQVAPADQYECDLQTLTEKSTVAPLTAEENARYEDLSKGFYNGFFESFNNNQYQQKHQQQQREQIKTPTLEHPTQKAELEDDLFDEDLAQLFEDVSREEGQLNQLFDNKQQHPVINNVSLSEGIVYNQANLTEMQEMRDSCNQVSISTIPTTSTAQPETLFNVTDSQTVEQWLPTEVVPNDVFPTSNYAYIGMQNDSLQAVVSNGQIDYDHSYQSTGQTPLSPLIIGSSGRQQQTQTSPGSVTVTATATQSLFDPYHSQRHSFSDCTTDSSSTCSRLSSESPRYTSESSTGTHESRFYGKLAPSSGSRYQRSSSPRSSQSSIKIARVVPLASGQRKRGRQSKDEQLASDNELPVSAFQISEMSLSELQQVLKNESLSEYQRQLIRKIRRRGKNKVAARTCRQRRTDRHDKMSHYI

[6] = NIH-3T3 fibroblast cytotoxicity, dose response, cytotoxicity control, cell-based, fluorescence, Alamar Blue, secondary assay (AID 2327); format: functional;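 note: NIH-3T3 mouse fibroblasts cultured with fluconazole at 8 µg/mL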
[7] = C. albicans growth with fluconazole, confirmation, fluorescence, retest (AID 2467); format: functional, cell-based
[8] = target: Glyceraldehyde-3-phosphate dehydrogenase (Homo sapiens, UniProt P04406)
[9] = target: T4, Tyrosine-protein phosphatase non-receptor type 7 (Homo sapiens, UniProt P35236); format: functional
T4 sequence (P35236 whole entry): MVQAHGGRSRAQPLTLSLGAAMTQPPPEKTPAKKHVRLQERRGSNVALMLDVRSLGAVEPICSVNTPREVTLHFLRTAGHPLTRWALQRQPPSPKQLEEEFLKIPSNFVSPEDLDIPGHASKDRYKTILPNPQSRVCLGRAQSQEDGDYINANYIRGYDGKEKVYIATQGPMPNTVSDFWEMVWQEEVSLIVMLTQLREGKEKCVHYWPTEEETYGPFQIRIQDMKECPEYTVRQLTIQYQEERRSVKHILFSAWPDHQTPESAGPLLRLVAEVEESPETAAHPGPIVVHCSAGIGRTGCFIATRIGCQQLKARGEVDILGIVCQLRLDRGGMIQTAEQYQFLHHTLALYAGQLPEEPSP

[10] = target: T5, Dual specificity protein phosphatase 6 (Rattus norvegicus, UniProt Q64346); format: functional
T5 sequence (Q64346 whole entry): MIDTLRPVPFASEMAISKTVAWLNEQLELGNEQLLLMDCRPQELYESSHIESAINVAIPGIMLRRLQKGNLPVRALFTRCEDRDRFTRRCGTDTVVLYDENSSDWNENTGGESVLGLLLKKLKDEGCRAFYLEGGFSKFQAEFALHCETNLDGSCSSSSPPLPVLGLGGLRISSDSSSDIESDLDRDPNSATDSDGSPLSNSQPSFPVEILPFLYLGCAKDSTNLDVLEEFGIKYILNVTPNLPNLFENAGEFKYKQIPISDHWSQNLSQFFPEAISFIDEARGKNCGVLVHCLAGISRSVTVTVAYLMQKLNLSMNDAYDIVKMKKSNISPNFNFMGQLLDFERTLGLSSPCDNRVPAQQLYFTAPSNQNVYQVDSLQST

[11] = target: T5, Dual specificity protein phosphatase 6
[12] = target: T6, Heat shock factor protein 1 (Mus musculus, UniProt P38532); assay: HSF1 potentiators in luciferase reporter cells, confirmation, cell-based, NIH3T3, luminescence, dose retest (AID 435004); format: functional;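 note: stress induced by proteasome inhibitor MG132 added 30 min after compound; luciferase reporter driven by HSF1 response element in NIH3T3 cells; actives raise luminescence as potentiators of the MG132 stress response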
T6 sequence (P38532 whole entry): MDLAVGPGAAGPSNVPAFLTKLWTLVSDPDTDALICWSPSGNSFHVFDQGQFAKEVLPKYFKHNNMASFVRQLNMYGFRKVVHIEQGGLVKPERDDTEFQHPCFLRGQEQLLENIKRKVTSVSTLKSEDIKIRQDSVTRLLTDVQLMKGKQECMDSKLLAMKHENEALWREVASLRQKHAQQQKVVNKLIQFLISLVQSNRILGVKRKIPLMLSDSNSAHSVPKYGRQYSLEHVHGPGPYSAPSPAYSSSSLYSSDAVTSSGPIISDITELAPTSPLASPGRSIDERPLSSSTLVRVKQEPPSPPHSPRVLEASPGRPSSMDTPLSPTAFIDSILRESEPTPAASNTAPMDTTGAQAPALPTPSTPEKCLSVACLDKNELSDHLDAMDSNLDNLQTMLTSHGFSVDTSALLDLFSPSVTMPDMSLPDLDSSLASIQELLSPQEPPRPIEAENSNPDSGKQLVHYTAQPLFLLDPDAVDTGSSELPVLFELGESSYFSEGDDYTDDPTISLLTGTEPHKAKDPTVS

[13] = target: T4, Tyrosine-protein phosphatase non-receptor type 7; assay: redox-dependent HePTP inhibition, mechanism study, biochemical, fluorescence (AID 2068); format: functional
[14] = target: T7, Alkaline phosphatase, tissue-nonspecific isozyme (Homo sapiens, UniProt P05186); assay: human TNAP enzyme inhibitors, SAR follow-up, biochemical, luminescent, dose response (AID 1056)
T7 sequence (P05186 whole entry): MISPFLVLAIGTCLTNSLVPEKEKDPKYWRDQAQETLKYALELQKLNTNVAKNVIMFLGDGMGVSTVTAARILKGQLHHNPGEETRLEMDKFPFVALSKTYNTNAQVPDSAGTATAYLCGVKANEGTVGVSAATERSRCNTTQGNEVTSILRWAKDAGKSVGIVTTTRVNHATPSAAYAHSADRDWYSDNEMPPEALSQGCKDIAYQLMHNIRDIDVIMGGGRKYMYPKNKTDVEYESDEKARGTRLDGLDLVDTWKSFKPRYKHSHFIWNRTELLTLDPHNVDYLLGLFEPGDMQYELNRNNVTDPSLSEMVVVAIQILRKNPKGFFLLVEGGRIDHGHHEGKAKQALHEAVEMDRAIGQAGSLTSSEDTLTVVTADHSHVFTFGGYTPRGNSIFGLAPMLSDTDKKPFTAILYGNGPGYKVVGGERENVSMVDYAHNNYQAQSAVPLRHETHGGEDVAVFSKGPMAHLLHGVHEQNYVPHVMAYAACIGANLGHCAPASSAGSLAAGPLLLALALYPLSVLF

[15] = target: Alkaline phosphatase, placental type (Homo sapiens, UniProt P05187); assay: PLAP enzyme inhibitors, confirmation, biochemical, luminescence (AID 1512); format: functional
[16] = target: Voltage-gated N-type calcium channel alpha-1B subunit/Amyloid beta A4 precursor protein-binding family A member 1 (Homo sapiens, UniProt Q00975+Q02410); assay: disruptors of Mint-PDZ/N-type channel peptide interaction – biochemical, HTRF, set 2, SAR follow-up (AID 434980); format: functional
[17] = Luminescent dose response cell-based high throughput screening assay for inhibitors of the Janus kinase 2 mutant JAK2V617F. [Related pubchem assays: 1446 (Primary screen.), 1521 (Confirmation assay.), 1486 (Counter screen.)]; format: functional
[18] = target: Polyadenylate-binding protein 1 (Homo sapiens, UniProt P11940); assay: PABP poly(A) RNA binding inhibitors, primary screen, biochemical, fluorescence polarization, uHTS (AID 2014)
[19] = target: Eukaryotic translation initiation factor 4H (Homo sapiens, UniProt Q15056); assay: human eIF4H binding inhibitors, primary screen, translation initiation inhibitor project, biochemical, uHTS, fluorescence polarization (AID 2012)

Sequence of Melanin-concentrating hormone receptor 1 (Q99705 whole entry): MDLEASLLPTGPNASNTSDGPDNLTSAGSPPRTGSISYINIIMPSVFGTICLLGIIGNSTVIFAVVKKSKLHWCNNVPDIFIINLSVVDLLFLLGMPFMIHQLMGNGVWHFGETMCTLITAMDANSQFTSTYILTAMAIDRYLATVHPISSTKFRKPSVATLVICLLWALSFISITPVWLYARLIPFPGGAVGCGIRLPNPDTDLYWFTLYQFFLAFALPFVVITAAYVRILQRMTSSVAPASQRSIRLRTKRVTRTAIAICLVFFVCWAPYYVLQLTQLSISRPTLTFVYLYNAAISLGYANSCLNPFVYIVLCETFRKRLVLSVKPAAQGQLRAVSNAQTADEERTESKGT
Sequence of Cytochrome P450 2D6 (P10635 whole entry): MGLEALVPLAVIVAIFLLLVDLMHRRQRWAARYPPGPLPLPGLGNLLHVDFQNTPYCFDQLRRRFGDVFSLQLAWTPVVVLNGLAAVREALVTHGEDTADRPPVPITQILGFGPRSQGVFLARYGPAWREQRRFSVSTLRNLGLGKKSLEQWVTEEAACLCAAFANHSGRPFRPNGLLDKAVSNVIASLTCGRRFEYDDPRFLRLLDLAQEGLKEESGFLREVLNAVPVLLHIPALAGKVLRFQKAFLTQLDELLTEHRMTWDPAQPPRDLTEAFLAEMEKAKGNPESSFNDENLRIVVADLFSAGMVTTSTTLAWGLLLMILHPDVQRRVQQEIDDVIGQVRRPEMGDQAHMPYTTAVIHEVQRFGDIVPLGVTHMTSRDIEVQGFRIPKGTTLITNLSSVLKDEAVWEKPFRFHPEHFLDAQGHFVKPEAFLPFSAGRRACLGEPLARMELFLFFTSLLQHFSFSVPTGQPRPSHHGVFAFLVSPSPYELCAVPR
Sequence of Alkaline phosphatase, placental type (P05187 whole entry): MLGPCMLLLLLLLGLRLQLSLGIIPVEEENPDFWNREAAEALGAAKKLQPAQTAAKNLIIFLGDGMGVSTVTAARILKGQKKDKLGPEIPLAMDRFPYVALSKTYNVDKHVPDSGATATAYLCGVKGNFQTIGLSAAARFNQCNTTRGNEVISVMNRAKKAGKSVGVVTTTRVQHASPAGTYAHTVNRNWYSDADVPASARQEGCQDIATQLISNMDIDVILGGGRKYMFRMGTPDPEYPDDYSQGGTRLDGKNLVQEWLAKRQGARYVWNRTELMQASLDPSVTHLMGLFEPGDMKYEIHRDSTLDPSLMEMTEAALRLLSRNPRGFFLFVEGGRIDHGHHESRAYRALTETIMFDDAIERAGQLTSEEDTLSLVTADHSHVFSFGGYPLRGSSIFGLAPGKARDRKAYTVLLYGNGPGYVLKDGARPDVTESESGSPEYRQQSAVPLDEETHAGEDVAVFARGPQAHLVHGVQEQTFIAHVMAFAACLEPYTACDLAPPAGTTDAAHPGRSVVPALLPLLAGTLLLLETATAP
Sequence of Voltage-gated N-type calcium channel alpha-1B subunit/Amyloid beta A4 precursor protein-binding family A member 1 (Q00975 whole entry): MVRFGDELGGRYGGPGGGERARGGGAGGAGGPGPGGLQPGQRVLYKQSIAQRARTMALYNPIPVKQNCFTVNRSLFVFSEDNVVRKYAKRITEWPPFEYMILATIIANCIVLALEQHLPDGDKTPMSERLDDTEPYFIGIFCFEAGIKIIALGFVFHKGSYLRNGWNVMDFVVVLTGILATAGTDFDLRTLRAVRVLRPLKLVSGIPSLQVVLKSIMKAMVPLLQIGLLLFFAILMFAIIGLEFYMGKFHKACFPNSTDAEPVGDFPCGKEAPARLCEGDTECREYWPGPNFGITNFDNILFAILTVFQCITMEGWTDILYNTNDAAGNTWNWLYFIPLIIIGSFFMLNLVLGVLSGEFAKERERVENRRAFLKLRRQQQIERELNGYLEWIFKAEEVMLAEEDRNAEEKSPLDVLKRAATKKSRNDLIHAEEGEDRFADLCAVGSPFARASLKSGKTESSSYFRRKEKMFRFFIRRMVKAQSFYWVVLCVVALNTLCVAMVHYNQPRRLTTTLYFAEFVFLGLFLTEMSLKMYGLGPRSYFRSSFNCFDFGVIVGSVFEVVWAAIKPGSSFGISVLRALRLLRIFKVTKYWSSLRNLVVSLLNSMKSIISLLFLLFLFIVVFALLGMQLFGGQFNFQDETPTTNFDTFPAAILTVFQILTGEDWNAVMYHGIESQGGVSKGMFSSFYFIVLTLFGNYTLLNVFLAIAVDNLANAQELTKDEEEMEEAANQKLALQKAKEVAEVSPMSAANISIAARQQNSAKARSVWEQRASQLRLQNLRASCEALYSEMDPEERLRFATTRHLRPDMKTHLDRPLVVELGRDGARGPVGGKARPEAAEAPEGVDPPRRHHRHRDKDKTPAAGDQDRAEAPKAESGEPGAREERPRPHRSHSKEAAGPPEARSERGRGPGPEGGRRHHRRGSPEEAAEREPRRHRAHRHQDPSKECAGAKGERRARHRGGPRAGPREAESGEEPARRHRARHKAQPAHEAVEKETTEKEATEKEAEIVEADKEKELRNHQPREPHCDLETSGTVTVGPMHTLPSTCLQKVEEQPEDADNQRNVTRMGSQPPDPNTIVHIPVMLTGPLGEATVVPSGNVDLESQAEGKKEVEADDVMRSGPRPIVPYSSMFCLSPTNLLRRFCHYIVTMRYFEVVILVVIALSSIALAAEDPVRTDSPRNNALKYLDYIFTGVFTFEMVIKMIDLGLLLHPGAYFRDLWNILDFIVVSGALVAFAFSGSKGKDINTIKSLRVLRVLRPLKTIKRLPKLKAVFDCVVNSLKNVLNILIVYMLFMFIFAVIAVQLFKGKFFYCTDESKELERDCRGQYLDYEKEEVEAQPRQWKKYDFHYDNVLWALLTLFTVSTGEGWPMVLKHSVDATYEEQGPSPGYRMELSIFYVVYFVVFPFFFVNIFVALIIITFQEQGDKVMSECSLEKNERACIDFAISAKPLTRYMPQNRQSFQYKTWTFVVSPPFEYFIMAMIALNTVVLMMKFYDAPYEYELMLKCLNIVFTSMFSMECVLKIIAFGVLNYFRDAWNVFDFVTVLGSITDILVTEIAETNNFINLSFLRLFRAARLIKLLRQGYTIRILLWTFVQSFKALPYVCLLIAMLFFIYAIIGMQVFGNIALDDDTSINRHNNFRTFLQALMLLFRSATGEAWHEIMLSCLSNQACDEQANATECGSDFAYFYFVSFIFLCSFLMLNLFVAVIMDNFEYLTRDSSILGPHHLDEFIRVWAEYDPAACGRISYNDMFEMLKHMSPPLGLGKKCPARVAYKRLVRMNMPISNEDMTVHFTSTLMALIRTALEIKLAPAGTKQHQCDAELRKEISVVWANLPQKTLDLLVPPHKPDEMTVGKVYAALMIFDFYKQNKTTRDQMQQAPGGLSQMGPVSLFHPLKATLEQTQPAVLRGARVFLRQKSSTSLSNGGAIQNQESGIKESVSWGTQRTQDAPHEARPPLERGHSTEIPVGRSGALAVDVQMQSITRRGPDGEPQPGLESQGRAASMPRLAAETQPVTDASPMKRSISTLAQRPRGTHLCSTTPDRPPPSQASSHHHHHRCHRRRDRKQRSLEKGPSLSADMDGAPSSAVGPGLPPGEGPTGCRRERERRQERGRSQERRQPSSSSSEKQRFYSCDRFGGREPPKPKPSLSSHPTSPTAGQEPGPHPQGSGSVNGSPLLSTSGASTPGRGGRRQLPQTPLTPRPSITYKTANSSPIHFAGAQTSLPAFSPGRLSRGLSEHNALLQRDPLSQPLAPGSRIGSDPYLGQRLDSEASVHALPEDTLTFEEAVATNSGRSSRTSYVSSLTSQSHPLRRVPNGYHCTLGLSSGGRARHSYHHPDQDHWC
Sequence of Voltage-gated N-type calcium channel alpha-1B subunit/Amyloid beta A4 precursor protein-binding family A member 1 (Q02410 whole entry): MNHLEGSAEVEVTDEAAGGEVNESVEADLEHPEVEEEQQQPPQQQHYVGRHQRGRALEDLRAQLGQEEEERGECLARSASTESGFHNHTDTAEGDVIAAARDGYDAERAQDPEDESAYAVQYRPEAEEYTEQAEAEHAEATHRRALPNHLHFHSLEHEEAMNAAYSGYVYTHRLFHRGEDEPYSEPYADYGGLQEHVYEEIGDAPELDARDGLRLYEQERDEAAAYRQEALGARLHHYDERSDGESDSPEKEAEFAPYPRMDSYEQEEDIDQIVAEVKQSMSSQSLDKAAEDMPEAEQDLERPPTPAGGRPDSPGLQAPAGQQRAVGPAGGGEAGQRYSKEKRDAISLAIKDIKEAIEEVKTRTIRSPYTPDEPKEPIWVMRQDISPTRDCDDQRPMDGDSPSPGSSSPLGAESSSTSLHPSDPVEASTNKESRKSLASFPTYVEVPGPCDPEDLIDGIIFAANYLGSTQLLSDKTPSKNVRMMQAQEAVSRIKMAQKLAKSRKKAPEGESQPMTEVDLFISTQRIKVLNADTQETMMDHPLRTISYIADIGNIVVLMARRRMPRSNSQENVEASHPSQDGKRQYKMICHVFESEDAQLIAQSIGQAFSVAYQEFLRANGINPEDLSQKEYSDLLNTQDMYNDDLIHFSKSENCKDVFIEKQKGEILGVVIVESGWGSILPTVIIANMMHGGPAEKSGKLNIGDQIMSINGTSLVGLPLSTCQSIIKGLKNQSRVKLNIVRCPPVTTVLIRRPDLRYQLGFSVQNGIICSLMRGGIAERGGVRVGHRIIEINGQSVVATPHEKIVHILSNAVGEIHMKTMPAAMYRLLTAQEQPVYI
Sequence of Glyceraldehyde-3-phosphate dehydrogenase (P04406 whole entry): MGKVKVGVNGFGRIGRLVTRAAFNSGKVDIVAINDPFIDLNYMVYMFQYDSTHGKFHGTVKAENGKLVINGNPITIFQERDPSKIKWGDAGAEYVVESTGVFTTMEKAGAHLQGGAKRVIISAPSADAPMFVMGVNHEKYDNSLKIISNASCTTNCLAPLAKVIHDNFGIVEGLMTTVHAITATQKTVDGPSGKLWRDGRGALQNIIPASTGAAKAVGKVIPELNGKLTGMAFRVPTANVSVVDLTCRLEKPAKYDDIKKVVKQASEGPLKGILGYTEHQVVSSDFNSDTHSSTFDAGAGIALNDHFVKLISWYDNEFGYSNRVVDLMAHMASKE

SMILES: O=C1NC(=S)N(C(=O)c2ccc(F)cc2)/C1=C/c1ccccc1
- EC50 [1]: 40.8 µM (active)
- IC50 (Insulin-degrading enzyme): 22.2 µM (not active)
- EC50 [2]: 54.1 µM (active)
- IC50 [3]: 22.4 µM (not active)

- AC50 (Cytochrome P450 2D6): 20 µM (inconclusive)
SMILES: O[C@@H]1CC[C@H]2Cc3ccccc3N=C21

- IC50 [4]: > 43.8 µM (not active)
- IC50 [5]: > 43.8 µM (not active)
SMILES: N=c1c(C(=O)NC2CCCCC2)cc2c(=O)n3ccccc3nc2n1CC1CCCO1 (configuration not stated)

SMILES: S=C(Nc1ccccc1)Nc1nc2ccccc2n1CCOc1ccccc1
- EC50 [1]: 17.4 µM (active)
- IC50 (Protein skinhead-1): > 100 µM (inactive)
- EC50 [6]: 8.47 µM (inconclusive)
- IC50 (Insulin-degrading enzyme): > 55.9 µM (not active)
- EC50 [7]: 2.08 µM (active)
- EC50 [2]: 15.9 µM (active)
- IC50 [3]: 15.9 µM (not active)

- IC50 [8]: > 100 µM (not active)
- IC50 [9]: > 100 µM (not active)
- IC50 [10]: > 100 µM (inactive)
- IC50 [11]: > 100 µM (inactive)
SMILES: C[C@@H](C(N)=O)n1c(=O)n(Cc2ccccc2)c(=O)n(-c2ccccc2)c1=O

- IC50 [4]: > 43.8 µM (not active)
- IC50 [5]: 33.3 µM (not active)
- EC50 [12]: > 260 µM (inactive)
SMILES: Cc1ccccc1CC1(CO)CCCN(C(=O)c2ccccc2Cl)C1 (configuration not stated)

- AC50 (Cytochrome P450 2D6): 20 µM (inconclusive)
SMILES: Cc1nc(/N=N\c2cc(S(=O)(=O)O)c3cc([N+](=O)[O-])cc(S(=O)(=O)O)c3c2)c(COP(=O)(O)O)c(C=O)c1O

- IC50 [10]: > 100 µM (inactive)
- IC50 [13]: 1.65 µM (active)
SMILES: COc1cc(C(=S)NCc2ccc(F)c(C(F)(F)F)c2)ccc1O

- IC50 [14]: > 100 µM (inactive)
- IC50 [15]: 8.31 µM (inactive)
SMILES: CCn1c(SCC(=O)c2ccc(O)c(O)c2)nnc1-c1ccc(OC)cc1

- IC50 [16]: 18 µM (active)
SMILES: O=C(Nc1ncc(-c2ccccc2)s1)c1cc(-c2ccco2)nc2ccccc12

SMILES: COc1ccc(-n2nnnc2SCC(=O)c2ccc(O)c(O)c2)cc1
- IC50 [17]: 1.46 µM (active)
- IC50 [14]: 5.93 µM (active)
- IC50 [15]: 1.42 µM (active)

SMILES: CN1/C(=C/c2cccc[n+]2CCO)Sc2ccccc21
- IC50 [18]: 1.87 µM (active)
- IC50 [19]: > 100 µM (inactive)
